Results from US7615646B2, “Chiral indole intermediates and their fluorescent cyanine dyes containing functional groups” (Carnegie Mellon University, priority 2002, dated 2009).

assay: Measurement of pKa values of pH-sensitive cyanine dyes (fluorescence intensity versus pH); format: physicochemical; details: Cl on the unquaternized indolenine unit
Description: The general method of pKa determination was performed as follows. Purified dye was dissolved in water to give a bulk stock solution (if necessary, a limited amount of acetonitrile was added to ensure solubility). By experiment, the volume of this stock solution that was required to be added to 10.0 ml of water+0.1% v/v trifluoroacetic acid, in order to give an absorbance of 0.5±0.02 at the dye peak wavelength, was determined. This volume of bulk stock solution was then added to 10.0 ml of water, to be used as the working stock solution.
Aqueous phosphate buffers were prepared covering the region of pH 4-9 {see “Data for Biochemical Research”, p. 432, 3rd edition, R. M. C Dawson, D. C. Elliott, W. H. Elliott & K. M. Jones, 1987 Oxford University Press. Buffers outside the listed range were made by adding in orthophosphoric acid or sodium hydroxide}. Plastic fluorescence cuvettes were then charged with 3.5 ml of each buffer. A fixed volume of dye working stock solution (in the range 50-250 μl) was added to a cuvette of buffer, the solution mixed and the fluorescence signal measured immediately {Perkin Elmer LS55 fluorimeter, excitation 640 nm. Emission spectrum was scanned and fluorescence intensity value at 680 nm recorded}. This was repeated for all cuvettes. The graph of fluorescence intensity versus pH was plotted using PRISM, the data fitted to a sigmoidal dose-response curve and the pKa value extracted as the calculated IC50 value from the fitting.

Row | lowering of dye pKa relative to dye 1 | Compound
1 | ~0.8 units | 3-(5-carboxypentyl)-2-[(1E,3E,5E)-5-(7-chloro-3,3-dimethyl-5-sulfo-1,3-dihydro-2H-indol-2-ylidene)penta-1,3-dienyl]-3-methyl-5-sulfo-1-(4-sulfobutyl)-3H-indolium [Dye 4]
2 | 0.3-0.4 units | CC1(C)C(/C=C/C=C/C=C2/Nc3ccc(Cl)cc3C2(C)C)=[N+](CCCCS(=O)(=O)[O-])c2ccc(S(=O)(=O)O)cc21 [Dye 7, 2-[(1E,3E,5E)-5-(5-chloro-3,3-dimethyl-1,3-dihydro-2H-indol-2-ylidene)penta-1,3-dienyl]-3,3-dimethyl-5-sulfo-1-(4-sulfobutyl)-3H-indolium]
3 | ~1.0 units | CC1(CCCCCC(=O)O)C(/C=C/C=C/C=C2/Nc3c(Cl)cc(Cl)cc3C2(C)C)=[N+](CCCCS(=O)(=O)[O-])c2ccc(S(=O)(=O)O)cc21 (stereo not shown) [Dye 2, 3-(5-carboxypentyl)-2-[(1E,3E,5E)-5-(5,7-dichloro-3,3-dimethyl-1,3-dihydro-2H-indol-2-ylidene)penta-1,3-dienyl]-3-methyl-5-sulfo-1-(4-sulfobutyl)-3H-indolium]

same assay, conditions: observed in aqueous phosphate buffers via fluorescence; excitation 640 nm, emission 680 nm

Row | Compound | pKa
4 | CC1(C)C(/C=C/C=C/C=C2/Nc3ccc(S(=O)(=O)O)cc3C2(C)CCCCCC(=O)O)=[N+](CCCCS(=O)(=O)[O-])c2ccc(Cl)cc21 (stereo not shown) [Example 3] | 7.44
5 | CC1(CCCCCC(=O)O)C(/C=C/C=C/C=C2/Nc3c(Cl)cc(S(=O)(=O)O)cc3C2(C)C)=[N+](CCCCS(=O)(=O)[O-])c2ccc(S(=O)(=O)O)cc21 (stereo not shown) [Dye 4, 3-(5-carboxypentyl)-2-[(1E,3E,5E)-5-(7-chloro-3,3-dimethyl-5-sulfo-1,3-dihydro-2H-indol-2-ylidene)penta-1,3-dienyl]-3-methyl-5-sulfo-1-(4-sulfobutyl)-3H-indolium] | 6.2
6 | CC1(C)C(/C=C/C=C/C=C2/Nc3ccc(Cl)cc3C2(C)C)=[N+](CCCCS(=O)(=O)[O-])c2ccc(S(=O)(=O)O)cc21 [Example 7] | 6.65
7 | CC1(C)C(/C=C/C=C/C=C2/Nc3ccc(C#N)cc3C2(C)C)=[N+](CCCCS(=O)(=O)[O-])c2ccc(S(=O)(=O)O)cc21 [Example 8] | 6.65
8 | CC1(CCCCCC(=O)ON2C(=O)CCC2=O)C(/C=C/C=C/C=C2/Nc3c(Cl)cc(S(=O)(=O)O)cc3C2(C)C)=[N+](CCCCS(=O)(=O)[O-])c2ccc(S(=O)(=O)O)cc21 (stereo not shown) [Dye 16.3, 3-(5-Carboxypentyl)-2-[(1E,3E,5E)-5-(7-chloro-3,3-dimethyl-5-sulfo-1,3-dihydro-2H-indol-2-ylidene)penta-1,3-dienyl]-3-methyl-5-sulfo-1-(4-sulfobutyl)-3H-indolium, N-hydroxysuccinimidyl ester] | 6.2
9 | CC1(CCCCCC(=O)O)C(/C=C/C=C/C=C2/Nc3c(Cl)cc(Cl)cc3C2(C)C)=[N+](CCCCS(=O)(=O)[O-])c2ccc(S(=O)(=O)O)cc21 (stereo not shown) [Dye 2, 3-(5-carboxypentyl)-2-[(1E,3E,5E)-5-(5,7-dichloro-3,3-dimethyl-1,3-dihydro-2H-indol-2-ylidene)penta-1,3-dienyl]-3-methyl-5-sulfo-1-(4-sulfobutyl)-3H-indolium] | 6.05

Continued, values first:

Row | pKa | Compound
10 | 7 | CC1(C)C(/C=C/C=C/C=C2/Nc3ccccc3C2(C)C)=[N+](CCCCS(=O)(=O)[O-])c2ccc(S(=O)(=O)O)cc21 [Example 5]
11 | 7 | CC1(C)C(/C=C/C=C/C=C2/Nc3ccc(S(=O)(=O)O)cc3C2(C)C)=[N+](CCCCS(=O)(=O)[O-])c2ccc(S(=O)(=O)O)cc21 [Dye 6, 2-[(1E,3E,5E)-5-(3,3-dimethyl-5-sulfo-1,3-dihydro-2H-indol-2-ylidene)penta-1,3-dienyl]-3,3-dimethyl-5-sulfo-1-(4-sulfobutyl)-3H-indolium]
12 | 7.36 | CC1(C)C(/C=C/C=C/C=C2/Nc3ccc(S(=O)(=O)O)cc3C2(C)C)=[N+](CCCCS(=O)(=O)[O-])c2ccc(Cl)cc21 [Example 9]
13 | 7 | CC1(C)C(/C=C/C=C/C=C2/Nc3ccc(S(=O)(=O)O)cc3C2(C)CCCCCC(=O)O)=[N+](CCCCS(=O)(=O)[O-])c2ccc(S(=O)(=O)O)cc21 (stereo not shown) [Dye 1, 2-{(1E,3E,5E)-5-[3-(5-carboxypentyl)-3-methyl-5-sulfo-1,3-dihydro-2H-indol-2-ylidene]penta-1,3-dienyl}-3,3-dimethyl-5-sulfo-1-(4-sulfobutyl)-3H-indolium]
